The record followed here is patent publication US4547517A, “Microbicidal N-sulphenylated hydantoins” (Bayer Aktiengesellschaft, priority 1983, dated 1985).

Converted amounts (≈) assume the structure as drawn.

A word on the MIC: it is the smallest concentration in the dilution series that meets the test's criterion for growth inhibition.

In test [1] the test system is Fusarium nivale. As to the kind of experiment: Fusarium nivale test (rye)/seed treatment (Example 30). The test is classed as in vivo, Fusarium nivale (on rye). The settings on record: seed treatment, 500 mg/kg of seed, about 3 weeks after sowing, not dressed 12.8. On the procedure:
The active compounds are used as dry dressings. These are prepared by extending the particular active compound with a ground mineral to give a finely pulverulent mixture, which ensures uniform distribution on the seed surface. To apply the dressing, the infected seed is shaken with the dressing in a closed glass flask for 3 minutes. 2 batches of 100 grains of the rye are sown 1 cm deep in standard soil and are cultivated in a greenhouse at a temperature of about 10° C. and a relative atmospheric humidity of about 95%, in seedboxes which are exposed to light for 15 hours daily. About 3 weeks after sowing, the plants are evaluated for symptoms of snow mould.

In test [2] the test system is Erysiphe graminis f.sp. hordei. Kind of test: Erysiphe test (barley)/protective (Example 29). The format is in vivo, Erysiphe graminis f.sp. hordei (on barley). The settings on record: protective, active compound concentration in spray liquor 0.025 % by weight, 7 days after inoculation. On the procedure:
Solvent: 100 parts by weight of dimethylformamide Emulsifier: 0.25 part by weight of alkylaryl polyglycol ether To produce a suitable preparation of active compound, 1 part by weight of active compound is mixed with the stated amounts of solvent and emulsifier, and the concentrate is diluted with water to the desired concentration. To test for protective activity, young plants are sprayed with the preparation of active compound until dew-moist. After the spray coating has dried on, the plants are dusted with spores of Erysiphe graminis f.sp. hordei. The plants are placed in a greenhouse at a temperature of about 20° C. and a relative atmospheric humidity of about 80%, in order to promote the development of powdery mildew pustules. Evaluation is carried out 7 days after the inoculation.

Test [3] concerns Alternaria tenuis. Kind of test: MIC against fungi in beer wort/peptone agar (Example 26). The test is classed as cell-based. As to conditions: Alternaria alternata, 336 h, 28° C., 2 weeks. On the procedure: (§1) Active compounds according to the invention are added in concentration of 0.1 mg/liter to 5,000 mg/liter to an agar prepared from beer wort and peptone. After storage at 28° C. and 60 to 70% relative atmospheric humidity for 2 weeks, the MIC is determined. The MIC is the lowest concentration of active compound at which no growth at all of the species of microbe used takes place; it is shown in the Table which follows.

For test [4], the system named is Aspergillus niger. The test is described as above. The format is cell-based. As to conditions: 336 h, 28° C., 2 weeks. The method, then: as §1
Test [5] concerns Aureobasidium pullulans. The test is described as above. The format is cell-based. The settings on record: 336 h, 28° C., 2 weeks. On the procedure:
as §1

In test [6] the test system is Chaetomium globosum. Described as above. The test is classed as cell-based. As to conditions: 336 h, 28° C., 2 weeks. On the procedure:
as §1

Test [7] has as its system Coniophora cerebella. Described as above. The test is classed as cell-based. As to conditions: 336 h, 28° C., 2 weeks. The method, then:
as §1

Test [8] concerns Lentinus tigrinus. The description is as above. The format is cell-based. The settings on record: 336 h, 28° C., 2 weeks. The method, then:
as §1

The subject of test [9] is Penicillium glaucum. The description is as above. The format is cell-based. The settings on record: 336 h, 28° C., 2 weeks. On the procedure:
as §1

Test [10] has as its system Polyporus versicolor. Described as above. The format is cell-based. As to conditions: Trametes versicolor, 336 h, 28° C., 2 weeks. The method, then:
as §1

Test [11] relates to Sclerophoma pityophila. The test is described as above. The test is classed as cell-based. The settings on record: Sydowia polyspora, 336 h, 28° C., 2 weeks. The method, then:
as §1

Test [12] relates to Staphylococcus aureus. As to the kind of experiment: Action against bacteria, MIC in bouillon agar (Example 27). The format is cell-based. As to conditions: 336 h, 28° C., 2 weeks. The method, then: The active compounds listed in Table II are added in concentrations of 1 to 5000 ppm to an agar containing bouillon as the nutrient medium. The nutrient medium is then infected with Staphylococcus aureus and the infected medium is kept at 28° C. and 60 to 70% relative atmospheric humidity for 2 weeks. The MIC is the lowest concentration of active compound at which no growth at all of the species of microbe used takes place.

Test [13] deals with slime organisms. As to the kind of experiment: Action against slime organisms, MIC in Allens nutrient solution (Example 28). The test is classed as cell-based. The settings on record: 504 h, room temperature, 3 weeks. On the procedure:
The compounds according to Examples 3, 5 and 10 are each used, dissolved in a little acetone, in concentrations of 0.1 to 100 mg/liter in Allens nutrient solution (Arch. Mikrobiol. 17, 34-53 (1952)), which contains, in 4 liters of sterile water, 0.2 g of ammonium chloride, 4.0 g of sodium nitrate, 1.0 g of dipotassium hydrogen phosphate, 0.2 g of calcium chloride, 2.05 g of magnesium sulphate, 0.02 g of iron chloride and 1% of caprolactam. Shortly beforehand, the nutrient solution is infected with slime organisms (about 10^6 germs/ml), which have been isolated from spinning water circulations used in the manufacture of polyamide. Nutrient solutions which contain the minimum inhibitory concentration (MIC) or higher concentrations of active compound are still completely clear after culture at room temperature for 3 weeks, that is to say the marked multiplication of the microbes and formation of slime noticeable after 3 to 4 days in nutrient solutions containing no active compound are absent.

The subject of test [14] is Pyricularia oryzae. The test is classed as in vivo, Pyricularia oryzae (on rice). As to conditions: rice, protective; active compound concentration 0.025 %; 4 days after inoculation.

As to `CN1C(=O)CN(SC(F)(Cl)Cl)C1=O`, in test [1], the “Diseased plants in % of the total plants emerged” value is reported as 0.0 % of the total plants emerged.

In the case of `O=C1C2CC=CCC2C(=O)N1SC(Cl)(Cl)Cl` (stereo not drawn) [Captan, reference compound], the “Disease infestation in % of the untreated control” value (from here on “Disease infestation in %”) in test [2] was 100 % of the untreated control. In addition, the “Diseased plants in % of the total plants emerged” value in test [1] is listed as 5.4 % of the total plants emerged.

As for `CN1C(=O)N(SC(F)(Cl)Cl)C(C)(C)C1=O` [Example 3], the MIC in test [3] was 1.5 µg/mL (≈ 5.45 µM); in test [4] it was 10 µg/mL (≈ 36.3 µM); in test [5] it was 1 µg/mL (≈ 3.63 µM); in test [6], 1.5 µg/mL (≈ 5.45 µM); in test [7], 1 µg/mL (≈ 3.63 µM); in test [8], 1 µg/mL (≈ 3.63 µM). The MIC worked out at 50 µg/mL (≈ 182 µM) in [9]; 7.5 µg/mL (≈ 27.3 µM) in [10]; 5 µg/mL (≈ 18.2 µM) in [11]; 50 µg/mL (≈ 182 µM) in test [12]; 3 µg/mL (≈ 10.9 µM) in [13].

For `CCCCN1C(=O)CN(SC(F)(Cl)Cl)C1=O` [Example 5], the MIC turned out to be 2 µg/mL (≈ 6.92 µM) in [3]; 50 µg/mL (≈ 173 µM) in test [4]; 2 µg/mL (≈ 6.92 µM) in test [5]; 3.5 µg/mL (≈ 12.1 µM) in test [6]; 0.75 µg/mL (≈ 2.59 µM) in [7]; 0.75 µg/mL (≈ 2.59 µM) in test [8]. Further, the MIC in [9] is 100 µg/mL (≈ 346 µM); in test [10] it was 15 µg/mL (≈ 51.9 µM); in test [11] it was 5 µg/mL (≈ 17.3 µM); in test [12] it was 100 µg/mL (≈ 346 µM); in test [13], 5 µg/mL (≈ 17.3 µM).

For `CC1(C)C(=O)N(C2CCCCC2)C(=O)N1SC(F)(Cl)Cl` [Example 10], the MIC is 3.5 µg/mL (≈ 10.2 µM) in test [3]; 20 µg/mL (≈ 58.3 µM) in test [4]; 3.5 µg/mL (≈ 10.2 µM) in test [5]; 1.5 µg/mL (≈ 4.37 µM) in [6]; 0.75 µg/mL (≈ 2.18 µM) in [7]; 0.75 µg/mL (≈ 2.18 µM) in test [8]. For the same compound, the MIC is 75 µg/mL (≈ 218 µM) in test [9]; 15 µg/mL (≈ 43.7 µM) in [10]; 5 µg/mL (≈ 14.6 µM) in test [11]; 50 µg/mL (≈ 146 µM) in test [12]; 100 µg/mL (≈ 291 µM) in test [13].

As to `O=C1CN(SC(F)(Cl)Cl)C(=O)N1C1CCCCC1` [drawing 16], the “Disease infestation in %” value in [2] is on record as 0.0 % of the untreated control.

On to `O=C1C2CC=CCC2C(=O)N1SC(Cl)(Cl)Cl` (stereo not drawn) [drawing 19, reference compound], for which, in test [14], the “Disease infestation in %” value is listed as 50 % of the untreated control.

`O=C1CN(SC(F)(Cl)Cl)C(=O)N1C1CCCCC1` [drawing 20]: the “Disease infestation in %” value in test [14] was 13 % of the untreated control.
